Measurements from patent publication US5679671A, “Amino acid derivative” (Eisai Co., Ltd., priority 1993, dated 1997).

How the values were obtained:
ACE [1] = target: T1, ACE (Rattus norvegicus, UniProt P47820); assay: ACE inhibition activity using rat lung (Experiment B-2); assay type: biochemical; details: rat lung membrane fraction, borate buffer
T1 construct: membrane fraction prepared from rat lung; from tissue; host or cells: rat lung, membrane fraction (method of Wu-Wong et al.)
T1 sequence (P47820 36-1313): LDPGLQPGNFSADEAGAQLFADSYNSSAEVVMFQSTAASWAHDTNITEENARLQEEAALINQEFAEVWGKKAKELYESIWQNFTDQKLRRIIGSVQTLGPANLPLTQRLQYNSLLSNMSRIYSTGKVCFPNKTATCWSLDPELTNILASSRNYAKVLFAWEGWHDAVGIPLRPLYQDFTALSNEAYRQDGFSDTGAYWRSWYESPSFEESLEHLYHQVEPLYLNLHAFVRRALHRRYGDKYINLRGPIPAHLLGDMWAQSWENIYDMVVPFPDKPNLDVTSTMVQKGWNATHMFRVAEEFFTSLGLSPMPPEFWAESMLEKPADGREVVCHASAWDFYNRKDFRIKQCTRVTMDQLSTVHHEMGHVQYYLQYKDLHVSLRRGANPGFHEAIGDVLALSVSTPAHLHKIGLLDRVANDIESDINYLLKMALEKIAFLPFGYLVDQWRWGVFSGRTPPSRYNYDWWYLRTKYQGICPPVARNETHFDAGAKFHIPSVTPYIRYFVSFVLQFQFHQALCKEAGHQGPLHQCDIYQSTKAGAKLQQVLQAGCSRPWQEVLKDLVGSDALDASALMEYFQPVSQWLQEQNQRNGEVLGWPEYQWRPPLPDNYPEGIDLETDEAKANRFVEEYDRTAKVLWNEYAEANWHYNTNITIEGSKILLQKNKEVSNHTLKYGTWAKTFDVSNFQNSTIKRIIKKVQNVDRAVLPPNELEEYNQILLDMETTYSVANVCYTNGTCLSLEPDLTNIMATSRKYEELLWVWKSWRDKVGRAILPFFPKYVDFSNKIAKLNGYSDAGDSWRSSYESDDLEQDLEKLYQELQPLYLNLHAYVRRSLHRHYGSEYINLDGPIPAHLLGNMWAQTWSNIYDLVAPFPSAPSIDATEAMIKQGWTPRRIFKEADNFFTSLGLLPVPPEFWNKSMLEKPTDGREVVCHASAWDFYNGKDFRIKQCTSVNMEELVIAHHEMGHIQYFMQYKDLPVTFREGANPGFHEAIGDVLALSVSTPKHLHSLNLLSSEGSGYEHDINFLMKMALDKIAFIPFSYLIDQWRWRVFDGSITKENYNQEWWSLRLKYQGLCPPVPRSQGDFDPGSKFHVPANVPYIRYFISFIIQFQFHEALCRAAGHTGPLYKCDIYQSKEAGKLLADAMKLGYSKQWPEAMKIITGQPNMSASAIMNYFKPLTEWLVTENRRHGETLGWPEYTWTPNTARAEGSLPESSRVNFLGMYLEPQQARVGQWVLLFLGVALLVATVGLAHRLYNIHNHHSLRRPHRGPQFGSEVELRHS
Procedure: The ACE inhibition activity was determined by using a membrane fraction prepared from rat lung in accordance with the method of Wu-Wong et al. (Characterization of Endthelin Converting Enzyme in Rat Lung., Junshyum R. Wu-Wong, Gerald, P. Budzik, Edward M. Devine and Terry J. Opgenorth, Biochem. Biophys. Res. Commun., 1990, 171, 1291-1296.).
The ACE activity was determined with the use of a modification (modified to a borate buffer, p11 8.3) of the method of Cushman and Cheung (Spectrophotometric Assay and Properties of the Angiotensin-Converting Enzyme of Rabbit Lung., Cushman, D. W. and Cheung H. S., 1971, 20, […].).
In the presence of ACE, the hippurate liberated from hippuryl-histidine-leucine (Hippuryl-His-Leu (PeptideInstitute Inc., Japan)) was extracted with ethyl acetate and then the absorbance was measured at a wavelength of 228 nm.
(§1) With respect to the ACE inhibition activity, the inhibitor was added to the reaction system as described above in such a manner as to give the final concentrations of 1, 3, 10, 30, 100, 300 and 1000 nM, an inhibition curve was prepared, and then the concentration at which 50% inhibition was achieved was taken as IC50.

NEP [2] = target: T2, NEP (Rattus norvegicus, UniProt P07861); assay: NEP inhibition activity using rat renal cortex (Experiment B-1); assay type: biochemical; design: membrane fraction prepared from rat renal cortex; from tissue; host or cells: rat renal cortex, membrane fraction (method of Booth and Kenny); details: rat renal cortex membrane fraction
T2 sequence (P07861 1-750): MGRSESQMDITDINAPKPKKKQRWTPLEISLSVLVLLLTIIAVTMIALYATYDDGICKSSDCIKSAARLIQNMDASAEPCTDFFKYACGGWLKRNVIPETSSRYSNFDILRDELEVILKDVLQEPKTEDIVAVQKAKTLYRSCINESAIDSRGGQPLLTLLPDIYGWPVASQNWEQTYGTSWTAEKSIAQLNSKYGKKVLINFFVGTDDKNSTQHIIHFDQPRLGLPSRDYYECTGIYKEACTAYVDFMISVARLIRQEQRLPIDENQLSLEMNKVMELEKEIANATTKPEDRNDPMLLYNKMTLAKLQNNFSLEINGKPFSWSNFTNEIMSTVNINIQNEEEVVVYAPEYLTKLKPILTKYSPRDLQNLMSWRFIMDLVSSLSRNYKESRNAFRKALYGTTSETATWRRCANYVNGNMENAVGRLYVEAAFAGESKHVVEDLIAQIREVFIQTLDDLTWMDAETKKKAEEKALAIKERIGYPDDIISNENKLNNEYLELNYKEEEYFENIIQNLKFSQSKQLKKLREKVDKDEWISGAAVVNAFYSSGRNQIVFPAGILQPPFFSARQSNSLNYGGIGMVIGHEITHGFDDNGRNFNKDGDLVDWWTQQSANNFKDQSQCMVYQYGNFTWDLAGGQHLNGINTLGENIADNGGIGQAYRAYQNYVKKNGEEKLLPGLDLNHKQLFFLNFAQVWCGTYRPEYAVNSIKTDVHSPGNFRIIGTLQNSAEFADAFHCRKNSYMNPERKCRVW
Procedure: The NEP activity was determined by using a membrane fraction prepared from rat renal cortex in accordance with the method of Booth and Kenay (A Rapid Metod for the Purificaton of Microvilli from Rabbit Kidney., Andrew G. Booth and A. John Kenny, Biochem j., 1974, 142, 575-581.).
The NEP activity was determined by the following manner in accordance with the method of Orlowsky and Wilk (Purification and Specificity of a Membrane-Bound Metalloendpeptldase from Bovine Pituitaries., Marian Orlowsky and Shrwin Wilk, Biochemistry, 1981, 20, 4942-4950.).
(§2) As a substrate, benzoyl-glycine-arginine-arginine-2-naphthylamide (benzoyl-Gly-Arg-Arg-2-naphthylamide (Nova Biochem, Switzerland)) was used. In the presence of an NEP enzyme preparation and excessive leucine aminopeptidase (sigma chemical Co., U.S.A.), the liberated naphthylamine was made to undergo color development with first garnet (Sigma chemical Co., U.S.A.), followed by the measurement of the absorbance at a wavelength of 540 nm.
as §1, with “NEP” for “ACE”

in vivo = details: rat, in vivo; for bioavailability: po
From the text: Then changes in the blood level of each medicament were monitored with the lapse of time by using liquid chromatography.

ACE [3] = target: T1, ACE; assay: ACE inhibition activity (Experiment E-1); assay type: biochemical; details: rat lung membrane fraction, pH 8.3
Procedure: As a source of the enzyme ACE, a membrane fraction prepared from rat lung in accordance with the method of Wu-Wong et al. (Characterization of Endthelin Converting Enzyme in Rat Lung., Jinshyum R. Wu-Wong, Gerald, P. Budzik, Edward M. Devine and Terry J. Opgenorth, Biochem. Biophys. Res. Commun., 1990, 171, 1291-1296.) was used. The ACE activity was determined with the use of a modification (modified to a borate buffer pH 8.3) of the method of Cushman and Cheung (Spectrophotometric Assay and Properties of the Angiotensin-Converting Enzyme of Rabbit Lung., Cushman D. W. and Cheung H. S., 1971, 20, 1637-1648.). Now the procedure will be briefly described.
In the presence of ACE, the hippurate liberated from hippuryl-histidyl-leucine (Hippuryl-His-Leu (PeptideInstitute Inc., Japan)) was extracted with ethyl acetate and then the absorbance was measured at a wavelength of 228 nm.
(§3) To determine the NEP inhibition activity and the ACE inhibition activity, the inhibitor was added to the assay systems of both enzyme activities as described above in such a manner as to give the final concentrations of 1, 3, 10, 30, 100, […] and 1000 nM and inhibition curves were prepared. Then the concentration at which 50% inhibition was achieved was taken as IC50.

NEP [4] = target: T2, NEP; assay: NEP inhibition activity (Experiment E-1); assay type: biochemical; design: membrane fraction prepared from rat renal cortex; from tissue; host or cells: rat renal cortex, membrane fraction (method of Booth and Kenny); details: rat renal cortex membrane fraction
Procedure: As a source of the enzyme NEP, a membrane fraction prepared from rat renal cortex in accordance with the method of Booth and Kenny (A Rapid Method for the Purification of Microvilli from Rabbit Kidney., Andrew G. Booth and A. John Kenny, Biochem. j., 1974, 142,575-581.) was employed. The NEP activity was determined in accordance with the method of Orlowsky and Wilk (Purification and Specificity of a Membrane-Bound Metalloendpeptidase from Bovine Pituitaries., Marian Orlowsky and Shrwin Wilk, Biochemistry, 1981, 20, 4942-4950.). Now the procedure will be briefly described.
as §2, with “benzoyl-glycyl-arginyl-arginyl-2-naphthylamide (benzoyl-Gly-Arg-Arg-2 naphthylamide” for “benzoyl-glycine-arginine-arginine-2-naphthylamide (benzoyl-Gly-Arg-Arg-2-naphthylamide”
as §3

Row | Compound | IC50 (ACE [1]) | IC50 (NEP [2]) | oral absorbability (in vivo) | bioavailability (in vivo; 10 mg/kg) | bioavailability (in vivo; 30 mg/kg) | IC50 (ACE [3]) | IC50 (NEP [4])
1 | CCOC(=O)C1CCCC2c3sccc3CC(NC(=O)[C@H](Cc3ccccc3)SC(C)=O)C(=O)N12 (single isomer, unassigned) [Example B-7] | 60 nM | 55 nM | – | – | – | – | –
2 | O=C(N[C@H]1Cc2sccc2[C@H]2CCC[C@@H](C(=O)O)N2C1=O)[C@@H](S)Cc1ccccc1 [Example B-3, [5S-[5α,8α(R*),11αβ]]-5-[[(S)-2-Mercapto-1-oxo-3-phenylpropyl]amino]-6-oxo-4,5,6,8,9,10,11,11a-octahydropyrido[1,2-a]thieno[3,2c]azepine-8-carboxylic acid] | 16 nM | 8.6 nM | – | – | – | – | –
3 | O=C(O)C1CCCC2c3sccc3CC(NC(=O)[C@@H](S)Cc3ccccc3)C(=O)N12 (stereo partly drawn) [Example B-8, 5-[(S)-2-Mercapto-1-oxo-3-phenylpropyl]amino-6-oxo-4,5,6,8,9,10,11,11a-octahydro[1,2-a]thieno-[2,3-c]azepine-8-carboxylic acid] | 90 nM | 72 nM | – | – | – | – | –
4 | O=C(N[C@H]1Cc2ccc(-c3ccccc3)cc2[C@H]2CCC[C@@H](C(=O)O)N2C1=O)[C@@H](S)Cc1ccccc1 [Example E-6, [4S-[4α,7α(R*),12bβ]]-7-[(S)-2-Mercapto-3-phenylpropionylamino]-6-oxo-11-phenyl-1,2,3,4,6,7,8,12b-octahydropyrido[2,1-a][2]benzazepine-4-carboxylic acid] | – | – | superior in oral absorbability to the comparative compound E-1 | 18.8% | 24.6% | 10 nM | 28 nM
